For one assay, the target named is T1, DRB5*0101 (DR2w2a) (Homo sapiens, UniProt P01903+Q30154).
T1 construct: used as sources of human HLA class II molecules; endogenous in cells; host or cells: GM3107 (EBV-transformed homozygous B cell line)
The experiment in a line: Class II peptide-binding assay, DR2w2a (DR2w2B2).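 Note: competitive binding assay: unlabeled peptide inhibiting binding of a radiolabeled probe peptide to purified DR molecules at pH 7.0, IC50 approximating Kd, lower means stronger binding.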

The target in another assay is T2, DRB1*0401 (DR4w4) (Homo sapiens, UniProt P01903+P01911, A100K/A169T/F76Y/I96L/K127E/L162R/M171V/N62H/P40V/Q125Y/R42H/S133A/S149N/S66Y/V115G/V209L/W38E).
T2 construct: used as sources of human HLA class II molecules; endogenous in cells; host or cells: PREISS (EBV-transformed homozygous B cell line)
Briefly: Class II peptide-binding assay, DR4w4.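 Note: unlabeled test peptides compete with a radiolabeled probe peptide for binding to affinity-purified HLA-DR, with DR amount titrated to capture a small fraction of label, IC50 approximating Kd.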

A further assay deals with T3, DRB10404 (DR4w14) (Homo sapiens, UniProt P01903+P01911, A100R/A169T/F76Y/I96L/K127E/L162R/M171V/N62H/P40V/Q125Y/R42H/S133A/S149N/S66Y/V209L/W38E).
T3 construct: used as sources of human HLA class II molecules; endogenous in cells; host or cells: BIN40 (EBV-transformed homozygous B cell line)
The experiment in a line: Class II peptide-binding assay, DR4w14.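 Note: unlabeled peptides compete with a radiolabeled probe for binding to affinity-purified HLA-DR, neutral pH, class II amount titrated to bind a small fraction of label, IC50 approximates Kd.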

A further assay deals with T4, DRB1*0101 (DR1) (Homo sapiens, UniProt P01903+P01911, A100R/D57E/F55L/F60I/F76Y/I96L/L162R/M171V/P40L/Q125E/R42F/V115G/Y59C).
T4 construct: used as sources of human HLA class II molecules; endogenous in cells; host or cells: LG2 (EBV-transformed homozygous B cell line)
Briefly: Class II peptide-binding assay, DR1.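 Note: competition assay: unlabeled test peptides inhibit binding of a radiolabeled probe peptide to purified DR, with half-maximal inhibition taken as an approximate dissociation constant Kd.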

A further assay addresses DRB1*0701 (DR7) (Homo sapiens, UniProt P01903+P01911, A100R/A102G/A103Q/D57E/D86V/E43K/F76Y/K127E/L162R/M171V/P40G/Q125H/Q99D/R33Q/R42Y/R54Q/S133A/S66F/T210M/V115G/Y107V/Y59L/Y89S). The experiment in a line: Class II peptide-binding assay, DR7.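 Note: unlabeled peptides compete with an iodinated probe peptide for binding to affinity-purified HLA-DR at neutral pH, DR amount titered to bind a small tracer fraction, IC50 approximating Kd.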
A further assay deals with T5, DRB1*1101 (DR5w11) (Homo sapiens, UniProt P01903+P01911, A100R/A169T/A87E/I96F/K41T/L162R/M171V/P40S/Q125H/Q178H/Q39Y/Q99D/R42S/S66Y/T262R/V115G/W38E).
T5 construct: used as sources of human HLA class II molecules; endogenous in cells; host or cells: SWEIG (EBV-transformed homozygous B cell line)
T5 sequence (P01903 26-254, other chains not shown): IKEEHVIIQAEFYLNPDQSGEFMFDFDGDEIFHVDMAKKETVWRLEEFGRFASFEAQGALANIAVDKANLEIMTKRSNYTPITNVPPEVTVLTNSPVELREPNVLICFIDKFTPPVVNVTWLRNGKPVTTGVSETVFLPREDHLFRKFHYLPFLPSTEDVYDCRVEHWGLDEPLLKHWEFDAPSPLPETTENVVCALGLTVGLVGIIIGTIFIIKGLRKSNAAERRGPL
Briefly: Class II peptide-binding assay, DR5w11.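 Note: competition by unlabeled test peptide against iodinated probe peptide binding to affinity-purified HLA-DR, class II amount titrated beforehand, half-maximal inhibitory concentration read as approximate Kd.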

[1] abbreviates: read-out: DR2w2B2 nM (In IC50 Format), purified HLA DR2w2β2.
[2] abbreviates: read-out: DR4w4 nM (In IC50 Format), purified HLA DR4w4.
The mark [3] stands for this setting: read-out: DR4w14 nM (In IC50 Format), purified HLA DR4w14.
Setting [4] is: read-out: DR1 nM (In IC50 Format), purified HLA DR1.
The mark [5] stands for this setting: read-out: DR7 nM (In IC50 Format), purified HLA DR7.
[6] abbreviates: read-out: DR5w11 nM (In IC50 Format), purified HLA DR5w11.
[7] abbreviates: read-out: DR2w2B2 nM, Table VIII, In IC50 Format.
[8] abbreviates: read-out: DR4w4 nM, Table VIII, In IC50 Format.
Where [9] appears, read: read-out: DR4w14 nM, Table VIII, In IC50 Format.
The mark [10] stands for this setting: read-out: DR1 nM, Table VIII, In IC50 Format.
Setting [11] is: read-out: DR7 nM, Table VIII, In IC50 Format.
The mark [12] stands for this setting: read-out: DR5w11 nM, Table VIII, In IC50 Format.

Read-outs that look alike come from different tables or passages of the source. Square brackets hold non-standard residues; d marks the D form. Ends that are not written are not given here. Peptide text beside a SMILES is read from it.

Method for DRB1*0401 (DR4w4): (§1) Class II peptide-binding assays. […] These assays were chosen as to be representative of the most common DR alleles.
(§2) Radiolabeled peptides were iodinated using the chloramine-T method. […] In appropriate stoichiometric conditions, the IC50 of an unlabeled test peptide to the purified DR is a reasonable approximation of the affinity of interaction (Kd). Peptides were tested in two to four completely independent experiments. […] Final detergent concentration in the incubation mixture was 0.05% Nonidet P-40. Assays were performed at pH 7.0 with the exception of DR3, which was performed at pH 4.5, and DRw53, which was performed at pH 5.0.
(§3) All subsequent inhibition and direct binding assays were the performed using these class II concentrations.
Method for DRB1*1101 (DR5w11): as §1, §2, §3
Method for DRB10404 (DR4w14): as §1
In appropriate stoichiometric conditions, the IC50 of an unlabeled test peptide to the purified DR is a reasonable approximation of the affinity of interaction (Kd). Peptides were tested in two to four completely independent experiments. […] Final detergent concentration in the incubation mixture was 0.05% Nonidet P-40. Assays were performed at pH 7.0 with the exception of DR3, which was performed at pH 4.5, and DRw53, which was performed at pH 5.0.
as §3

Turning to `CC(C)C[C@H](NC(=O)[C@@H](NC(=O)[C@@H](NC(=O)[C@H](CCC(N)=O)NC(=O)[C@H](CCCNC(=N)N)NC(=O)[C@H](CCC(N)=O)NC(=O)[C@H](Cc1ccccc1)NC(=O)[C@H](C)NC(=O)[C@H](C)NC(=O)[C@H](N)Cc1ccc(O)cc1)[C@@H](C)O)[C@@H](C)O)C(=O)N[C@@H](CCCCN)C(=O)N[C@@H](C)C(=O)N[C@@H](C)C(=O)N[C@H](C)C(N)=O` [Peptide 781.16] (H-[dY]AAFQRQTTLKAA[dA]-NH2), the IC50 at DRB5*0101 (DR2w2a) (setting [1]) stood at 155 nM; on DRB1*0401 (DR4w4) (setting [2]), 3.8 nM; on DRB10404 (DR4w14) (setting [3]), 7 nM; at DRB1*0101 (DR1) (setting [4]) it was 3 nM; on DRB1*0701 (DR7) (setting [5]), 2780 nM; at DRB1*1101 (DR5w11) (setting [6]), 10 nM.
For Ac-AFAAAATLKA-NH2 [Peptide 770.02], the IC50 at DRB5*0101 (DR2w2a) (setting [1]) stood at 132 nM; at DRB1*0401 (DR4w4) (setting [2]) it was 21.4 nM; at DRB10404 (DR4w14) (setting [3]), 102 nM; at DRB1*0101 (DR1) (setting [4]) it was 35.7 nM; at DRB1*0701 (DR7) (setting [5]) it was 325 nM; at DRB1*1101 (DR5w11) (setting [6]) it was 104 nM.
Regarding YAKFQSQTTLKAKT-NH2 [Peptide 717.40], the IC50 at DRB5*0101 (DR2w2a) (setting [1]) was 167 nM; at DRB1*0401 (DR4w4) (setting [2]) it was 4.9 nM; on DRB10404 (DR4w14) (setting [3]), 14.3 nM; on DRB1*0101 (DR1) (setting [4]), 8.8 nM; at DRB1*0701 (DR7) (setting [5]) it was 3570 nM; at DRB1*1101 (DR5w11) (setting [6]), 8.7 nM.
On to `C[C@H](NC(=O)[C@H](C)NC(=O)[C@H](C)NC(=O)[C@H](Cc1ccc(O)cc1)NC(=O)[C@H](C)NC(=O)[C@@H](C)N)C(=O)N[C@@H](C)C(=O)N[C@H](C(=O)N[C@@H](C)C(=O)N[C@@H](CCCCN)C(=O)N[C@@H](C)C(=O)N[C@@H](C)C(=O)N[C@H](C)C(N)=O)[C@@H](C)O` [Peptide 762.02] (H-[dA]AYAAAATAKAA[dA]-NH2), for which the IC50 was found to be 105 nM on DRB5*0101 (DR2w2a) (setting [1]); 2 nM on DRB1*0401 (DR4w4) (setting [2]); 1430 nM at DRB10404 (DR4w14) (setting [3]); 1.7 nM on DRB1*0101 (DR1) (setting [4]); 694 nM on DRB1*0701 (DR7) (setting [5]); 25.6 nM at DRB1*1101 (DR5w11) (setting [6]).
For YARFQSQTVLKAKT-NH2 [Peptide 717.32], the IC50 on DRB5*0101 (DR2w2a) (setting [1]) was 400 nM; at DRB1*0401 (DR4w4) (setting [2]), 5.7 nM; at DRB10404 (DR4w14) (setting [3]), 10.4 nM; at DRB1*0101 (DR1) (setting [4]) it was 7.6 nM; on DRB1*0701 (DR7) (setting [5]), 151 nM; at DRB1*1101 (DR5w11) (setting [6]), 14.3 nM.
Turning to EALVRQGLAKVAYVYKPNN [NASE 101-], the IC50 on DRB5*0101 (DR2w2a) (setting [7]) was determined as 154 nM; at DRB1*0401 (DR4w4) (setting [8]), 978 nM; at DRB10404 (DR4w14) (setting [9]) it was 1140 nM; on DRB1*0101 (DR1) (setting [10]) it was 2.2 nM; at DRB1*0701 (DR7) (setting [11]), 454 nM; at DRB1*1101 (DR5w11) (setting [12]), 100 nM.
In the case of YARFQSQTTLKAKT-NH2 [Peptide 717.02], the IC50 at DRB5*0101 (DR2w2a) (setting [1]) was 125 nM; at DRB1*0401 (DR4w4) (setting [2]), 3.7 nM; on DRB10404 (DR4w14) (setting [3]), 18.5 nM; at DRB1*0101 (DR1) (setting [4]) it was 2.9 nM; on DRB1*0701 (DR7) (setting [5]), 2780 nM; on DRB1*1101 (DR5w11) (setting [6]), 18.9 nM.
On to AFAAAATLKA-NH2 [Peptide 770.01], for which the IC50 on DRB5*0101 (DR2w2a) (setting [1]) came out at 43.1 nM; at DRB1*0401 (DR4w4) (setting [2]), 23.7 nM; at DRB10404 (DR4w14) (setting [3]) it was 357 nM; on DRB1*0101 (DR1) (setting [4]), 78.1 nM; on DRB1*0701 (DR7) (setting [5]) it was 694 nM; on DRB1*1101 (DR5w11) (setting [6]), 250 nM.
With YARFASQTTLKAKT-NH2 [Peptide 782.02], the IC50 on DRB5*0101 (DR2w2a) (setting [1]) was 191 nM; on DRB1*0401 (DR4w4) (setting [2]) it was 2.5 nM; on DRB10404 (DR4w14) (setting [3]), 14.7 nM; on DRB1*0101 (DR1) (setting [4]), 3.6 nM; at DRB1*0701 (DR7) (setting [5]) it was 6250 nM; on DRB1*1101 (DR5w11) (setting [6]), 25.7 nM.
With `C[C@H](NC(=O)[C@H](C)NC(=O)[C@H](Cc1ccccc1)NC(=O)[C@H](C)NC(=O)[C@@H](C)N)C(=O)N[C@@H](C)C(=O)N[C@@H](C)C(=O)N1CCC[C@H]1C(=O)N[C@@H](CCCCN)C(=O)N[C@@H](C)C(=O)N[C@@H](C)C(=O)N[C@@H](C)C(=O)N[C@H](C)C(N)=O` [Peptide 828.05] (H-[dA]AFAAAAPKAAA[dA]-NH2), the IC50 at DRB5*0101 (DR2w2a) (setting [7]) amounted to 15.6 nM; at DRB1*0401 (DR4w4) (setting [8]), 155 nM; on DRB10404 (DR4w14) (setting [9]), 6250 nM; on DRB1*0101 (DR1) (setting [10]), 1.9 nM; on DRB1*0701 (DR7) (setting [11]), 1320 nM; on DRB1*1101 (DR5w11) (setting [12]), 105 nM.
